From patent US12122821B2, “Regulation of glucose metabolism using anti-CGRP antibodies” (H. LUNDBECK A/S, priority 2013, dated 2024)

Tests used:
[1] = system: Zucker diabetic fatty (ZDF) rat; test: Fructosamine and HbA1c in ZDF rats (Example 3); assay type: in vivo; conditions: metformin 200 mg/kg/day, vs vehicle ZDF
Method: (§1) For the groups treated with AB14, the antibody was administered once weekly via the caudal vein (i.v., 5 mL/kg) on days 1, 8, 15, and 22 at two different doses 20 mg/kg/week (groups 3 and 7) or 60 mg/kg/week (groups 4 and 8). All other groups were treated once weekly with vehicle 1 (i.v., 5 mL/kg). The intravenous treatments were performed in the morning on day 1, 8, 15, and 22 while under isoflurane anaesthesia. The volume of administration was individually adapted according to the most recent body weight.
(§2) All other groups were treated daily with vehicle 2 (p.o., 5 mL/kg) for 28 days. The most recent body weight was used to calculate the average volume of administration in each group.
(§3) Fasting blood glucose (glucometers) was measured on days 0, 12, 19, and 26. Fasting plasma insulin, peptide-C (ELISA method), free fatty acids, triglycerides, total cholesterol (colorimetric method), and HDL-cholesterol (phosphotungstate precipitation, colorimetric method) were measured on day 0, and prior to dosing on days 12, 19, and day 26. Non HDL-cholesterol was calculated as total cholesterol—HDL-cholesterol. Fructosamine was measured on days 0, 19 and 28. HbA1c (DCA 2000) was measured on days 0 and 28.

HFD rats = test: Body weight and food intake in high fat/high fructose diet (HFD) rats (Example 2); assay type: in vivo, rat; conditions: vs HFD vehicle
Method: After 6 weeks of HFD rats were randomized to treatment groups according to their glucose intolerance (AUC calculation during an oral glucose tolerance test (OGTT)) and their HOMA-IR (insulin resistance index).
Body weight and food consumption were measured 3 times per week until 10 days of treatment. HOMA-IR was measured on day 10 and 15. A 2-step clamp (5 mU/kg/min and then 15 mU/kg/min insulin) was performed on day 15 or 16. Glucose Turnover (GTO) was assessed using ^3H-glucose tracer infusion during the clamp procedure.
Ab14 (10, 30, 100 mg/kg) and the vehicle were weekly administered via i.v. route (via the caudal vein, under isoflurane anaesthesia), in the morning, on day 1 and day 8 of treatment.
Body weight was measured once a week during the first six week of HFD. Body weight was measured 3 times per week during the first 10 days of treatment. Food consumption was measured over 48 h or 72 h, just before treatment and 3 times per week during treatment until surgery procedure (day 11).

[2] = system: Zucker diabetic fatty (ZDF) rat; test: Plasma triglycerides, free fatty acids and cholesterol in ZDF rats (Example 3); assay type: in vivo; conditions: for increase of free fatty acids levels: vs vehicle ZDF, not significant
Method: as §1, §2
A fasting (6 hours on day 0 from 8:00 am to 02:00 pm, and overnight on day 12, 19 and 26 from ˜6:00 pm to ˜8:00 am) was performed before each blood collection. Blood was collected at ˜2:00 pm, from the tip of the tail, on day 0 (before screening, 150 μL, potassium EDTA), and at ˜8:00 am prior to dosing on days 12 (110 μL, potassium EDTA), 19 (150 μL, potassium EDTA) and 26, (110 μL, potassium EDTA).
as §3

[3] = Ab14 10, 30, 100 mg/kg/week i.v., metformin 200 mg/kg/day

CN(C)C(=N)N=C(N)N [metformin, reference compound]
decrease of HbA1c ([1]; 28 days, pioglitazone 10 mg/kg/day): 15% | reduction of fructosamine levels ([1]; day 19, pioglitazone 10 mg/kg/day): 6% | body weight (HFD rats; 10 days of treatment, Ab14 10, 30, 100 mg/kg/week i.v., metformin 200 mg/kg/day): significantly decreased | body weight gain (HFD rats; Ab14 30 mg/kg, metformin 200 mg/kg): significantly decreased | decrease of cumulative food consumption (HFD rats; [3]): 25% | food consumption (follow-up food intake) (HFD rats; [3]): significantly decreased | increase of plasma triglycerides levels ([2]; day 12, metformin 200 mg/kg/day, vs vehicle): 26% | increase of free fatty acids levels ([2]; day 12, metformin 200 mg/kg/day): 14% | increase of plasma triglycerides levels ([2]; day 19, metformin 200 mg/kg/day, vs vehicle): 40% | increase of free fatty acids levels ([2]; day 19, metformin 200 mg/kg/day): 25% | increase of plasma triglycerides levels ([2]; day 26, metformin 200 mg/kg/day, vs vehicle): 49% | increase of free fatty acids levels ([2]; day 26, metformin 200 mg/kg/day): 8% | non HDL-cholesterol levels ([2]; metformin 200 mg/kg/day alone or in combination with AB14, vs vehicle): no effect | plasma HDL-cholesterol ([2]; metformin 200 mg/kg/day alone, vs vehicle): no effect
